One test deals with P. falciparum TM91C235. In words: Testing of compounds against P. falciparum strain TM91C235. The format is cell-based. The settings on record: Plasmodium falciparum. An excerpt:
(§1) Parasitic Lethality: The geldanamycin derivatives were subjected to further testing for lethality to the P. falciparum parasite itself. IC50 values were then obtained as illustrated in Table 1 in Example 3. Samples of the literature compound 17-N-allyl-17-demethoxygeldanamycin was synthesized and tested for killing of parasites. Preferably the drugs are selective for parasitic hsp90 homologs over human hsp90 and have minimal human toxicity. Geldanamycin derivatives of this type have potential for being novel drugs in the treatment of parasitic diseases. The medical community will be able to use these new anti-infective medications alone or in combination with other anti-infective medications. For example, the geldanamycin derivatives of the present invention can be used in combination with chloroquine, since geldanamycin and chloroquine are synergistic inhibitors of Plasmodium falciparum growth as described in Kumar et al. Malaria Journal 2:30 (2003).
(§2) Both parasite strains are chloroquine and pyrimethamine resistant and TM91C235 is also mefloquine resistant.

For a further test, the system named is P. falciparum W2. In words: Testing of compounds against P. falciparum strain W2. The settings on record: Plasmodium falciparum. In kind it is cell-based.
Source text: as §1, §2

[1] abbreviates: target strain TM91C235 (chloroquine, pyrimethamine and mefloquine resistant), read-out: IC50.
[2] abbreviates: target strain TM91C235 (chloroquine, pyrimethamine and mefloquine resistant), read-out: IC90.
Where [3] appears, read: target strain W2 (chloroquine and pyrimethamine resistant), read-out: IC50.
Setting [4] is: target strain W2 (chloroquine and pyrimethamine resistant), read-out: IC90.

Structures can show the parent of a compound that is named as a salt. Where two headings read alike, the source gives them in different places.

As usually defined, the IC50 is the concentration at which inhibition is half-maximal. A word on the IC90: it is the concentration needed for an effect of 90%.

As for `CCN(CC)CCCC(C)Nc1ccnc2cc(Cl)ccc12` (stereo not drawn) [Chloroquine, reference compound], in the test with P. falciparum TM91C235, the IC50 came out at 0.125 µg/mL and the IC90 is 0.16 µg/mL. In addition, in the test on P. falciparum W2 (W2), the IC50 stood at 0.0297 µg/mL and the IC90 was 0.0378 µg/mL.

In the case of `CO[C@H]1/C=C\C=C(/C)C(=O)NC2=CC(=O)C(N3CCC3)=C(C[C@@H](C)C[C@H](OC)[C@H](OC(=O)CCCN)[C@@H](C)/C=C(\C)[C@@H]1OC(N)=O)C2=O` [Compound A, 11-O-(4-Aminobutyryl)-17-(1-azetidinyl)-17-demethoxygeldanamycin trifluoroacetate], the IC50 with P. falciparum TM91C235 (setting [1]) was found to be 1.03 µg/mL; with P. falciparum W2 (setting [3]), 0.65 µg/mL. The concentration for an effect of 90% (IC90) with P. falciparum TM91C235 (setting [2]) amounted to 2.53 µg/mL; with P. falciparum W2 (setting [4]) it was 1.79 µg/mL.

`CCCC(=O)O[C@H]1/C(C)=C/[C@H](C)[C@@H](O)[C@@H](OC)C[C@H](C)CC2=C(N3CCC3)C(=O)C=C(NC(=O)/C(C)=C/C=C\[C@@H]1OC)C2=O` [Compound B, 17-(1-Azetidinyl)-7-butyryl-7-decarbamyl-17-demethoxygeldanamycin]: the IC50 with P. falciparum TM91C235 (setting [1]) came out at 2.71 µg/mL; with P. falciparum W2 (setting [3]), 0.786 µg/mL. Moreover, the IC90 in the test on P. falciparum TM91C235 (setting [2]) worked out at 4.02 µg/mL; in the test with P. falciparum W2 (setting [4]), 2.73 µg/mL.

On to `CO[C@H]1/C=C\C=C(/C)C(=O)NC2=CC(=O)C(N3CCC3)=C(C[C@@H](C)C[C@H](OC)[C@H](O)[C@@H](C)/C=C(\C)[C@@H]1OC(=O)C1CC1)C2=O` [Compound C, 17-(1-Azetidinyl)-7-(cyclopropanyl)carbonyl-7-decarbamyl-17-demethoxygeldanamycin], for which the results for the IC50 with P. falciparum TM91C235 (setting [1]) and in the test with P. falciparum W2 (setting [3]) were 2.64 µg/mL and 0.875 µg/mL, respectively. In addition, the values for the IC90 in the test with P. falciparum TM91C235 (setting [2]) and in the test on P. falciparum W2 (setting [4]) were 3.95 µg/mL and 3.06 µg/mL, respectively.

In the case of `CO[C@H]1/C=C\C=C(/C)C(=O)NC2=CC(=O)C(N3CCC3)=C(C[C@@H](C)C[C@H](OC)[C@H](O)[C@@H](C)/C=C(\C)[C@@H]1O)C2=O` [Compound D, 17-(1-Azetidinyl)-7-decarbamyl-17-demethoxygeldanamycin], the IC50 is 4.04 µg/mL with P. falciparum TM91C235 (setting [1]) and 0.958 µg/mL with P. falciparum W2 (setting [3]). Besides, the IC90 in the test on P. falciparum TM91C235 (setting [2]) was found to be 8.41 µg/mL; in the test on P. falciparum W2 (setting [4]), 6.18 µg/mL.

Take `CO[C@H]1/C=C\C=C(/C)C(=O)NC2=CC(=O)C(N3CCC3)=C(C[C@@H](C)C[C@H](OC)[C@H](O)[C@@H](C)/C=C(\C)[C@@H]1OC(=O)c1ccccc1)C2=O` [Compound E, 17-(1-Azetidinyl)-7-benzoyl-7-decarbamyl-17-demethoxygeldanamycin]: in the test with P. falciparum TM91C235, the IC50 is 4.29 µg/mL and the IC90 was found to be 6.07 µg/mL. For the same molecule, in the test on P. falciparum W2 (W2), the IC50 stood at 1.26 µg/mL and the IC90 is 5.43 µg/mL.

As for `CCC(=O)O[C@H]1/C(C)=C/[C@H](C)[C@@H](O)[C@@H](OC)C[C@H](C)CC2=C(N3CCC3)C(=O)C=C(NC(=O)/C(C)=C/C=C\[C@@H]1OC)C2=O` [Compound F, 17-(1-Azetidinyl)-7-decarbamyl-17-demethoxy-7-propionylgeldanamycin], the values for the IC50 in the test with P. falciparum TM91C235 (setting [1]) and with P. falciparum W2 (setting [3]) were 3.03 µg/mL and 0.909 µg/mL, respectively. In addition, the IC90 is 5.54 µg/mL in the test with P. falciparum TM91C235 (setting [2]) and 3.74 µg/mL in the test with P. falciparum W2 (setting [4]).

For `CO[C@H]1/C=C\C=C(/C)C(=O)NC2=CC(=O)C(N3CCC3)=C(C[C@@H](C)C[C@H](OC)[C@H](O)[C@@H](C)/C=C(\C)[C@@H]1OC(N)=O)C2=O` [Compound G, 17-(1-Azetidinyl)-17-demethoxygeldanamycin], the IC50 stood at 0.169 µg/mL with P. falciparum TM91C235 (setting [1]) and 0.0683 µg/mL in the test on P. falciparum W2 (setting [3]). For the same molecule, the concentration for an effect of 90% (IC90) in the test on P. falciparum TM91C235 (setting [2]) worked out at 0.346 µg/mL; in the test on P. falciparum W2 (setting [4]), 0.208 µg/mL.

`OC(c1cc(C(F)(F)F)nc2c(C(F)(F)F)cccc12)C1CCCCN1` (stereo not drawn) [Mefloquine, reference compound]: the IC50 with P. falciparum TM91C235 (setting [1]) is 0.0138 µg/mL; in the test on P. falciparum W2 (setting [3]) it was 0.00163 µg/mL. Also, the IC90 in the test on P. falciparum TM91C235 (setting [2]) came to 0.0291 µg/mL; in the test on P. falciparum W2 (setting [4]) it was 0.00409 µg/mL.

For the origin of these results see patent US20070207992A1, “Geldanamycin derivatives and method of use thereof” (Board of Trustees of Michigan State University, priority 2006, published 2007).
